Results on five molecules are retold here after patent US5912356A, “Antiviral nucleoside analogues containing a substituted benzimidazole base attached to a carbocyclic ring” (Glaxo Wellcome Inc., priority 1997, dated 1999).

SMILES strings stand for the structures.

For experiment [1], the system named is Human cytomegalovirus (HCMV). In words: Anti-HCMV plaque reduction assay in MRC5 cell monolayers. The settings on record: Human betaherpesvirus 5, 50% inhibitory concentration, MRC5 cells (human embryonic lung). It is filed as cell-based. As for the experimental part:
Human cytomegalovirus (HCMV) is assayed in monolayers of MRC5 cells (human embryonic lung) in multiwell trays. Activity of compounds is determined in the plaque reduction assay, in which a cell monolayer is infected with a suspension of HCMV. A range of concentrations of the compound to be tested (of known molarity) is then incorporated into the carboxymethyl cellulose overlay. Plaque numbers of each concentration are expressed as percentage of the control and a dose-response curve is drawn. From this curve the 50% inhibitory concentration (IC50) is estimated.
On the technique in general: In a plaque reduction assay, fewer plaques than in the control indicate reduced infectivity or spread.

The subject of experiment [2] is HBV. Put plainly: Anti-HBV assay: HBV DNA in supernatants of HBV-producing cells (HepG2 2.2.15, P5A), immunoaffinity capture, PCR and hybrid-capture detection. It is filed as cell-based, hepatitis B virus (HBV). The settings on record: 50 percent decrease in HBV DNA, HepG2 2.2.15, P5A cell line, two values per compound, ganciclovir (control): average of 10 values. As to the method: Anti-HBV activity of compounds of formula (I) and (I-1) was determined with a high-capacity assay for assessing efficacy. Supernatants from growing HBV-producing cells (HepG2 2.2.15, P5A cell line) in 96-well plates are applied to microtiter plate wells which have been coated with a specific monoclonal antibody to HBV surface antigen (HBsAg). Virus particles present in the supernatants bind to the antibody and remain immobilized while other debris is removed by washing. These virus particles are then denatured to release HBV DNA strands which are subsequently amplified by the polymerase chain reaction and detected with a calorimetric hybrid-capture assay. Quantitation is achieved through fitting of a standard curve to dilutions of a cell supernatant with known HBV DNA content. By comparing HBV DNA levels of untreated control cell supernatants with supernatants containing a compound of formula (I) or (I-1), a measure of anti-HBV effectiveness is obtained.
b. Immunoaffinity Capture of HBV:
HBV producer cells, 2500 cells/well, were seeded in 96-well culture dishes in RPMI/10% fetal bovine serum/2 mM glutamine (RPMI/10/2:). Media were replenished on days 1, 3, 5, and 7 with dilutions of a compound of formula (1) or (I-1) in RPMI/10/2 to a final volume of 150 uL. Fifty uL of mouse monoclonal anti-HBsAG antibody (10 ug/mL in PBS) were added to each well of a round-bottom microtiter plate. After incubation overnight at 4° C., the solutions were aspirated and replaced with 100 uL of 0.1% BSA in PBS. Samples were incubated for 2 hours at 37° C. and washed three times with PB S/0/01% Tween-20 (PBS/T) using a Nunc Washer. Ten uL of 0.035% Tween 20 in PBS were then added to all wells by Pro/Pette. Cell supernatants (25 uL) containing extracellular virion DNA were transferred into wells by Pro/Pette; the final Tween concentration is 0.01%. Twenty-five uL HBV standard media dilutions in RPMI/10/2 were added to 2 rows of wells to serve as an internal standard curve for quantitation, and the plates were sealed and incubated at 4° C. overnight. Samples were washed 5 times with PBS/T and 2 times with PBS, aspirating the last wash. Next, 25 uL of 0.09N NaOH/0.01% NP40 were added to each well by Pro/Pette, and the sample wells were sealed and incubated at 37° C. for 60 minutes. Samples were then neutralized with 25 uL of 0.09N HCl/100 mM tris (pH 8.3).
c. Polymerase Chain Reaction (PCR):
Polymerase chain reaction (Saiki, R. K. et al., Science, 239 (4839) 487-91 (1988)) was carried out on 5 uL samples, using a Perkin Elmer PCR kit. PCR is performed in "MicroAmp tubes" in a final volume of 25 uL. Primers were chosen from conserved regions in the HBV genome, as determined by alignment of several sequences. One primer is biotinylated at the 5-prime end to facilitate hybrid-capture detection of the PCR products. All primers were purchased from Synthecell Corp., Rockville, Md. 20850.
d. Hybrid-Capture Detection of PCR Products:
PCR products were detected with horse radish peroxidase-labeled oligonucleotide probes (Synthecell Corp., Rockville, Md. 20850), which hybridize to biotinylated strands of denatured PCR products directly in streptavidin-coated microtiter plate wells, using essentially the method of Holodiniy, M. et al., BioTechniques, 12 (1) 37-39 (1992). Modifications included the use of […] PCR reaction volumes and sodium hydroxide denaturation instead of heat. Simultaneous binding of the biotin moiety to the plate-bound streptavidin during the hybridization serves to "capture" the hybrids. Unbound labeled probes were washed away before calorimetric determination of the bound (hybridized) horse radish peroxidase. Quantities of HBV DNA present in the original samples were calculated by comparison with standards. These values were then compared to those from untreated cell cultures to determine the extent of anti-HBV activity.
IC50 (the median inhibitory concentration) is the amount of compound which produces a 50 percent decrease in HBV DNA. […]

[3] abbreviates: Hepatitis B virus, HepG2 2.2.15, approximate IC50.

In the case of `OC[C@@H]1C[C@H](n2c(Br)nc3cc(Cl)c(Cl)cc32)[C@@H](O)[C@H]1O` (relative stereo) [Ex. 4, (±)-(1R*, 2S*, 3S*, 5S*)-5-(2-Bromo-5,6-dichloro-1H-benzimidazol-1yl)-3-(hydroxymethyl)-1,2-cyclopentanediol], half-maximal inhibition in experiment [1] (IC50) required 1900 nM. With `CC(C)(C)Nc1nc2cc(Cl)c(Cl)cc2n1[C@H]1C[C@@H](CO)[C@H](O)[C@@H]1O` [Ex. 40, (1R, 2S, 3S, 5S)-5-[2-(tert-Butylamino)-5,6-dichloro-1H-benzimidazol-1-yl]-3-(hydroxymethyl)-1,2-cyclopentanediol], half-maximal inhibition in experiment [2] (approximate IC50) (IC50) required 1400 nM. `Nc1nc(O)c2ncn(COC(CO)CO)c2n1` [ganciclovir, reference compound]: the midpoint of inhibition in experiment [2] (setting [3]), the IC50, lay at 1100 nM. As for `OC[C@@H]1C[C@H](n2c(NC3CC3)nc3cc(Cl)c(Cl)cc32)[C@@H](O)[C@H]1O` [Ex. 32, (1R, 2S, 3S, 5S)-5-[5,6-Dichloro-2-(cyclopropylamino)-1H-benzimidazol-1-yl]-3-(hydroxymethyl)-1,2-cyclopentanediol], the IC50 (usually the concentration needed to halve the response being measured) is 1300 nM in experiment [2] (setting [3]) and 790 nM in experiment [2] (approximate IC50). Turning to `CC(C)Nc1nc2cc(Cl)c(Cl)cc2n1[C@H]1C[C@@H](CO)[C@H](O)[C@@H]1O` [Ex. 33, (1R, 2S, 3S, 5S)-5-[5,6-Dichloro-2-(isopropylamino)-1H-benzimidazol-1-yl]-3-(hydroxymethyl)-1,2-cyclopentanediol], the results for the IC50 in experiment [2] (setting [3]) and in experiment [2] (approximate IC50) were 440 nM and 500 nM, respectively.
